Reference: patent US7678913B2, “Ureas as factor Xa inhibitors” (Portola Pharmaceuticals, Inc., priority 2004, dated 2010)

These compounds were tested against T1, human plasma protein factor Xa (Homo sapiens, UniProt P00742) (assay: Factor Xa IC50 determination (cleavage of chromogenic substrate S-2765)). Details: fXa 1 nM, S-2765 100 μM, Tris buffered saline pH 7.4, room temperature.
T1 construct: measure proteolytic activity of the enzyme (factor Xa); purchased Haematologic Technologies (Essex Junction, Vt.); host or cells: human plasma
T1 sequence (P00742 235-488 limits assumed): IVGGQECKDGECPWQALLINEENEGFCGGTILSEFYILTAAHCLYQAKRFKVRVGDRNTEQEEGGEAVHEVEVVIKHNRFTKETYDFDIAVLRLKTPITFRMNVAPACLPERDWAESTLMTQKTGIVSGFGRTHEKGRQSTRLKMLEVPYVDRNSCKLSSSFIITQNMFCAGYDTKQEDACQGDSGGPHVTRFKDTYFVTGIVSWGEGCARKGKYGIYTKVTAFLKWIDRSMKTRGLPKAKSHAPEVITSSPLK
T1 sequence (P00742 41-179 partner limits assumed): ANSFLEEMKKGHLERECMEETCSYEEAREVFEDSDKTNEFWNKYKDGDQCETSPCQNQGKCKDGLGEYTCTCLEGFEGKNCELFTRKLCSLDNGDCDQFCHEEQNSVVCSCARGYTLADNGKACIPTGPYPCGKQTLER
Format: biochemical
From the text: This example illustrates methods for evaluating the compounds of the invention, along with results obtained for such assays. The in vitro and in vivo Factor Xa isoform activities of the inventive compounds can be determined by various procedures known in the art, such as a test for their ability to inhibit the activity of the Factor Xa isoform. […] The IC50 value is the concentration (in nM) of the compound required to provide 50% inhibition of Factor Xa isoform.
An in vitro assay for detecting and measuring inhibition activity against Factor Xa is as follows:
• The substrate S-2765 (Z-D-Arg-Gly-Arg-pNA.HCl) was obtained from Diapharma (West Chester, Ohio). Enzyme: • The human plasma protein factor Xa was purchased from Haematologic Technologies (Essex Junction, Vt.). Methods
All assays, which are performed in 96-well microtiter plates, measure proteolytic activity of the enzyme (factor Xa) by following cleavage of paranitroanilide substrate. The assay buffer used for proteolytic assays was Tris buffered saline (20 mM Tris, 150 mM NaCl, 5 mM CaCl2, 0.1% Bovine serum albumin (BSA), 5% Dimethly Sulfoxide (DMSO) pH 7.4). In a 96-well microtiter plate, inhibitor was serially diluted to give a range of concentrations from 0.01 nM to 10 μM (final). Duplicate sets of wells were assayed and control wells without inhibitor were included. Enzyme was added to each well,(fXa concentration=1nM), the plate was shaken for 5 seconds and then incubated for 5 minutes at room temperature. S2765 was added (100 μM final) and the plate was shaken for 5 seconds (final liquid volume in each well was 200 μl). The degree of substrate hydrolysis was measured at 405 nm on a Thermomax plate reader (Molecular Devices, Sunnyvale, Calif.) for 2 minutes. The initial velocities (mOD/min), for each range of inhibitor concentrations, were fitted to a four parameter equation using Softmax data analysis software. The parameter C, derived from the resulting curve-fit, corresponded to the concentration for half maximal inhibition (IC50).

Compound | IC50
CN1CCN=C1c1ccc(NC(=O)C(NC(=O)Nc2ccc(Cl)cc2)c2ccc(F)cc2)cc1 (stereo not shown) [Example 10, N-[4-(1-methyl-4,5-dihydro-1H-imidazol-2-yl)phenyl]-2-(4-fluorophenyl)-2-(4-chlorophenylaminocarbonylamino)-acetamide] | ≤ 100 nM
COc1ccccc1C(NC(=O)Nc1ccc(Cl)cc1)C(=O)Nc1ccc(-c2cccc[n+]2[O-])cc1 (stereo not shown) [Example 107, N-[4-(N-oxo-pyridin-2-yl)phenyl]-2-(2-methoxyphenyl)-2-(4-chlorophenylaminocarbonylamino)-acetamide] | ≤ 100 nM
CN1CCN=C1c1ccc(NC(=O)[C@@H](CC(=O)O)NC(=O)Nc2ccc(Cl)cc2)cc1 [Example 62, (2R) N-[4-(1-methyl-4,5-dihydro-1H-imidazol-2-yl)phenyl]-2-carboxymethyl-2-(4-chlorophenylaminocarbonylamino)-acetamide] | 100 to 500 nM
CN1CCN=C1c1ccc(NC(=O)C(CC(=O)N2CCCC2)NC(=O)Nc2ccc(Cl)cc2)cc1 (stereo not shown) [Example 66, N-[4-(1-methyl-4,5-dihydro-1H-imidazol-2-yl)phenyl]-2-(pyrrolidin-1-yl-carbonylmethyl)-2-(4-chlorophenylaminocarbonylamino)-acetamide] | ≥ 500 nM
CN1CCN=C1c1ccc(NC(=O)[C@@H](NC(=O)Nc2ccc(Cl)cc2)c2ccccc2)cc1 [Example 31, (2S) N-[4-(1-methyl-4,5-dihydro-1H-imidazol-2-yl)phenyl]-2-phenyl-2-(4-chlorophenylaminocarbonylamino)-acetamide] | ≤ 100 nM
CCN(C)C(=N)c1ccc(NC(=O)C(NC(=O)Nc2ccc(Cl)cc2)c2ccccc2)c(F)c1 (stereo not shown) [Example 34, N-[4-(N-methyl-N-ethylaminoimino)-2-fluorophenyl]-2-phenyl-2-(4-chlorophenylaminocarbonylamino)-acetamide] | ≤ 100 nM
C=CCC(NC(=O)Nc1ccc(Cl)cc1)C(=O)Nc1ccc(C2=NCCN2C)cc1 (stereo not shown) [Example 132, N-[4-(1-methyl-4,5-dihydro-1H-imidazol-2-yl)phenyl]-2-allyl-2-(4-chlorophenylaminocarbonylamino)-acetamide] | ≤ 100 nM
O=C(Nc1ccc(Cl)s1)N[C@H](C(=O)Nc1ccc(-n2ccccc2=O)cc1)c1ccccc1 [Example 139, (2S) N-[4-(2-pyridon-1-yl)phenyl]-2-phenyl-2-(2-chlorothiophen-5-ylaminocarbonylamino)-acetamide] | ≤ 100 nM
CN1CCN=C1c1ccc(NC(=O)C(NC(=O)Nc2ccc(Cl)cc2)c2cccnc2)cc1 (stereo not shown) [Example 9, N-[4-(1-methyl-4,5-dihydro-1H-imidazol-2-yl)phenyl]-2-pyridin-3-yl-2-(4-chlorophenylaminocarbonylamino)-acetamide] | 100 to 500 nM
CN1CCN=C1c1ccc(NC(=O)C2(NC(=O)Nc3ccc(Cl)cc3)CC2)cc1 [Example 15, N-[4-(1-methyl-4,5-dihydro-1H-imidazol-2-yl)phenyl]-1-(4-chlorophenylaminocarbonylamino)-1-cyclopropanecarboxamide] | 100 to 500 nM
CN1CCN=C1c1ccc(NC(=O)C(Cc2c[nH]cn2)NC(=O)Nc2ccc(Cl)cc2)cc1 (stereo not shown) [Example 7, N-[4-(1-methyl-4,5-dihydro-1H-imidazol-2-yl)phenyl]-2-imidazol-4-ylmethyl-2-(4-chlorophenylaminocarbonylamino)-acetamide] | ≤ 100 nM
COc1ccccc1C(NC(=O)Nc1ccc(Cl)cc1)C(=O)Nc1ccc(C(=N)N2CCCC2)cc1 (stereo not shown) [Example 113] | ≤ 100 nM
CC(C)C(NC(=O)Nc1ccc(Cl)cc1)C(=O)Nc1ccc(C2=NCCN2C)cc1 (stereo not shown) [Example 2, N-[4-(1-methyl-4,5-dihydro-1H-imidazol-2-yl)phenyl]-2-isopropyl-2-(4-chlorophenylaminocarbonylamino)-acetamide] | ≤ 100 nM
N=C(c1ccc(NC(=O)C(NC(=O)Nc2ccc(Cl)cc2)c2ccccc2)c(F)c1)N1CCC1 (stereo not shown) [Example 39] | ≤ 100 nM
O=C(Nc1ccc(Cl)cc1)N[C@@H](C(=O)N1CCC(n2ccccc2=O)CC1)c1ccccc1 [Example 143, (2R) 4-(2-pyridon-1-yl)piperidin-1-yl-2-phenyl-2-(4-chlorophenylaminocarbonylamino)-acetamide] | ≤ 100 nM
O=C(Nc1ccc(Cl)cc1)NC(C(=O)Nc1ccc(-c2cccc[n+]2[O-])cc1)c1ccccc1Oc1ccccc1 (stereo not shown) [Example 125, N-[4-(N-oxo-pyridin-2-yl)phenyl]-2-(2-phenoxyphenyl)-2-(4-chlorophenylaminocarbonylamino)-acetamide] | ≤ 100 nM

Compound | IC50
CN1CCN=C1c1ccc(NC(=O)C(NC(=O)Nc2ccc(Cl)cc2)c2cccs2)cc1 (stereo not shown) [Example 12, N-[4-(1-methyl-4,5-dihydro-1H-imidazol-2-yl)phenyl]-2-(2-thienyl)-2-(4-chlorophenylaminocarbonylamino)-acetamide] | ≤ 100 nM
O=C(Nc1ccc(Cl)cc1)N[C@@H](C(=O)Nc1ccc(-n2ccccc2=O)cc1F)c1ccccc1 [Example 140, (2R) N-[4-(2-pyridon-1-yl)-2-fluorophenyl]-2-phenyl-2-(4-chlorophenylaminocarbonylamino)-acetamide] | ≤ 100 nM
CN1CCN=C1c1ccc(NC(=O)[C@H](CC(=O)OCc2ccccc2)NC(=O)Nc2ccc(Cl)cc2)cc1 [Example 59] | ≤ 100 nM
Cc1ccccc1C(NC(=O)Nc1ccc(Cl)cc1)C(=O)Nc1ccc(N2CCCN(C)CC2)cc1 (stereo not shown) [Example 92, N-[4-(4-methyl-homopiperazinyl)phenyl]-2-(2-methylphenyl)-2-(4-chlorophenylaminocarbonylamino)-acetamide] | ≤ 100 nM
O=C(Nc1ccc(Cl)cc1)NC(C(=O)N1CCC(N2CCOCC2=O)CC1)c1ccccc1Cl (stereo not shown) [Example 145, 4-(3-morpholinon-4-yl)piperidin-1-yl-2-(2-chlorophenyl)-2-(4-chlorophenylaminocarbonylamino)-acetamide] | ≤ 100 nM
Cc1ccccc1C(NC(=O)Nc1ccc(Cl)cc1)C(=O)NCC1CCN(c2ccncc2)CC1 (stereo not shown) [Example 93, N-[1-(pyridin-4-yl)piperidin-4-yl]methyl-2-(2-methylphenyl)-2-(4-chlorophenylaminocarbonylamino)-acetamide] | ≤ 100 nM
CN1CCN=C1c1ccc(NC(=O)C(NC(=O)Nc2ccc(Cl)cc2)c2ccsc2)cc1 (stereo not shown) [Example 13, N-[4-(1-methyl-4,5-dihydro-1H-imidazol-2-yl)phenyl]-2-(3-thienyl)-2-(4-chlorophenylaminocarbonylamino)-acetamide] | ≤ 100 nM
CN(C)C(=N)c1ccc(NC(=O)C(NC(=O)Nc2ccc(Cl)cc2)c2cccs2)cc1 (stereo not shown) [Example 19, N-[4-(dimethylaminoimino)phenyl]-2-(2-thienyl)-2-(4-chlorophenylamino-carbonylamino)-acetamide] | ≤ 100 nM
O=C(Nc1ccc(Cl)cc1)NC(C(=O)Nc1ccc(-c2cc[n+]([O-])cc2)cc1)c1ccccc1F (stereo not shown) [Example 50, N-[4-(N-oxo-pyridin-4-yl)phenyl]-2-(2-fluorophenyl)-2-(4-chlorophenylaminocarbonylamino)-acetamide] | 100 to 500 nM
CN1CCN=C1c1ccc(NC(=O)C(NC(=O)Nc2ccc(Cl)cc2)c2ccccc2OC(F)(F)F)cc1 (stereo not shown) [Example 120, N-[4-(1-methyl-4,5-dihydro-1H-imidazol-2-yl)phenyl]-2-(2-trifluoromethoxyphenyl)-2-(4-chlorophenylaminocarbonylamino)-acetamide] | ≤ 100 nM
COc1ccccc1C(NC(=O)Nc1ccc(Cl)cc1)C(=O)N1CCN(C2CCN(C)CC2)CC1 (stereo not shown) [Example 109, N-[4-(1-methylpiperidin-4-yl)piperazin-1-yl]-2-(2-methoxyphenyl)-2-(4-chlorophenylaminocarbonylamino)-acetamide] | ≤ 100 nM
Cc1ccccc1C(NC(=O)Nc1ccc(Cl)cc1)C(=O)Nc1ccc(N(C)c2ccncc2)cc1 (stereo not shown) [Example 96, N-[4-(N-methyl-N-pyridin-4-yl-amino)phenyl]-2-(2-methylphenyl)-2-(4-chlorophenylaminocarbonylamino)-acetamide] | ≤ 100 nM
CN1CCN=C1c1ccc(NC(=O)[C@H](NC(=O)Nc2ccc(Cl)cc2)c2ccccc2)cc1 [Example 32, (2R) N-[4-(1-methyl-4,5-dihydro-1H-imidazol-2-yl)phenyl]-2-phenyl-2-(4-chlorophenylaminocarbonylamino)-acetamide] | ≤ 100 nM
C#CCN(C)C(=N)c1ccc(NC(=O)C(NC(=O)Nc2ccc(Cl)cc2)c2ccccc2)c(F)c1 (stereo not shown) [Example 36, N-[4-(N-methyl-N-propargylaminoimino)-2-fluorophenyl]-2-phenyl-2-(4-chlorophenylaminocarbonylamino)-acetamide] | ≤ 100 nM
C=CCC(NC(=O)Nc1ccc(Cl)cc1)C(=O)Nc1ccc(-c2cccc[n+]2[O-])cc1 (stereo not shown) [Example 133, N-[4-(N-oxo-pyridin-2-yl)phenyl]-2-allyl-2-(4-chlorophenylaminocarbonylamino)-acetamide] | ≤ 100 nM
